This is an account of results in PMC12363342, “Investigating the N-terminal linker histone H1 subtypes as substrates for JmjC lysine demethylases” (RSC Chemical Biology, 2025).

Square brackets hold non-standard residues; d marks the D form. Ends that are not written are not given here. Lys(Me3) = C[N+](C)(C)CCCC[C@H](N)C(=O)O

The test concerns the target T1, KDM4D (Homo sapiens, UniProt Q6B0I6).
T1 construct: KDM4AM1-L359,[38]; KDM4DM1-L359,[39]; KDM4EM1-R336,[30]; His6 (N); made in house; host or cells: Escherichia coli
T1 sequence (Q6B0I6 1-359): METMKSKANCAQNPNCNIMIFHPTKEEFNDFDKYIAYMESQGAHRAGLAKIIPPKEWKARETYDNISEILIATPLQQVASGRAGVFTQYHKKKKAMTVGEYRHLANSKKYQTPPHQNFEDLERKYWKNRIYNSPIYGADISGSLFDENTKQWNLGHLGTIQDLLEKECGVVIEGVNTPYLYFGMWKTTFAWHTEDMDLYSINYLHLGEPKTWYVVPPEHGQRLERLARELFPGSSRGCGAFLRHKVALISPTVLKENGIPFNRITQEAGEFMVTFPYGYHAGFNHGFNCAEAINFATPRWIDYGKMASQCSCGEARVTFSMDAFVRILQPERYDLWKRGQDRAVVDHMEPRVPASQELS
As to the kind of experiment: time-course 1H NMR assay of succinate production, KDM4D. The test is classed as biochemical. To be noted: KDM4D 10 μM, 2OG 400 μM, peptide 400 μM; for oxidation of H1 peptide by KDM4D (succinate production arising from 2OG oxidation): 1H NMR 700 MHz, 298 K, Fe(II) 100 μM, L-ascorbate 1 mM, 50 mM Tris-d11 pH 7.5, 60 min, two independent experiments; for succinate production rate with KDM4D, relative: 1H NMR time course, pH 7.5, compared to H1.4K25me3. The text has this:
Fig. 6 Time-course ^1H NMR analysis for reactions of KDM4D with H1 peptides. (A) KDM4D-catalysed succinate production for H1.3K24me3 (turquoise), H1.4K25me3 (raspberry), and H1.5K26me3 (khaki) compared to that without peptides (black). (B) KDM4D in the presence of 2OG without the H1 peptide; note that only low-level succinate production is observed. (C) Production of succinate measured for KDM4D/H1.3K24me3 over time, as evidenced by increasing integration of the singlet at δ^1H 2.31 ppm (corresponding to the succinate methylenes). Assay conditions are described in the Experimental details section.
NMR spectra were acquired at 298 K using a Bruker AVIII 700 MHz NMR spectrometer equipped with a TCI helium-cooled CryoProbe. Data were processed using TopSpin v.3.6.2 software. Signal intensities were calibrated relative to TSP, δH 0 ppm, and the chemical shifts (ppm) are relative to the resonance of the solvent, δH 4.7 ppm. Assay mixtures contained KDM4D (10 μM), 2OG (400 μM), H1_20–34 peptide (400 μM), Fe(II) ammonium sulfate (100 μM), L-ascorbate (1 mM) and internal standard, 3-(trimethylsilyl)-2,2,3,3-tetradeuteropropionic acid (TSP, 800 μM) in 50 mM Tris-d11, pH 7.5. Aqueous stocks of 2OG, Fe(II) ammonium sulfate and L-ascorbate were prepared fresh on the day of testing. Samples were transferred to 3-mm diameter MATCH NMR tubes (CortecNet) and monitored by ^1H excitation sculpting with baseline optimisation using 16 transients. The time lapse between sample mixing and data acquisition was 6–7 min. The spectra were acquired every 2 min over 60 min. Starting material and product concentrations were quantified relative to the TSP concentration. Samples from two independent experiments were analysed by NMR spectroscopy.

As to “KKKAR[Lys(Me3)]SAGAAKRKA [Peptide H1.4K25me3, 15-mer linker histone H1.4 residues 20-34 peptide, tri-methylated K25]”, the “oxidation of H1 peptide by KDM4D (succinate production arising from 2OG oxidation)” value (“oxidation of H1 peptide by KDM4D” for short) is listed as “clear evidence for oxidation”.

Regarding “KKKATK[Lys(Me3)]AAGAGAAK [Peptide H1.5K26me3, 15-mer linker histone H1.5 residues 20-34 peptide, tri-methylated K26]”, the “oxidation of H1 peptide by KDM4D” value was “clear evidence for oxidation” and the “succinate production rate with KDM4D, relative” value was “slightly slower succinate production compared to H1.4K25me3”.

In the case of “KKKA[Lys(Me3)]KAGATAGKRK [Peptide H1.3K24me3, 15-mer linker histone H1.3 residues 20-34 peptide, tri-methylated K24]”, the “oxidation of H1 peptide by KDM4D” value is reported as “clear evidence for oxidation” and the “succinate production rate with KDM4D, relative” value is reported as “slightly slower succinate production compared to H1.4K25me3”.
